Assay results: patent publication US9307757B2, “Monoalkyl sulfosuccinates in pesticide formulations and applications” (AKZO NOBEL CHEMICALS INTERNATIONAL B.V., priority 2009, dated 2016)

Assays:
[1] = Stability and uniformity of high-load glufosinate-ammonium formulation (FIG. 1); format: physicochemical; details: 1:1 mixture glufosinate-ammonium active and ACAR 7053 (C8 ether sulfate adjuvant), hydrotrope present, FIG. 1C
Source text: The unique structure of the monoalkyl sulfosuccinates of structure (I) renders them the capability of compatibilizing or stabilizing the highly concentrated components in the pesticide/herbicide formulation. Such capability is best illustrated by the performance of monoalkylsulfosuccinates, particularly of sodium monobutyl sulfosuccinate in the high load glufosinate-ammonium formulations. In these formulations, the active loading is at the highest (280 g/l). As the active content increases, the adjuvant content increases and the water content is reduced. Consequently, there is not enough water to solubilize both the herbicide active and the adjuvant. Without the action of a hydrotrope, the two components would separate.
Without hydrotrope, the formulation is a hazy mixture when freshly mixed (FIG. 1A) that separates into two layers upon standing (FIG. 1B).

[2] = Designed experiment: percentage of separation of aqueous mixtures of pesticide, adjuvant and hydrotrope (FIG. 2 ternary diagram); format: physicochemical; details: pesticide formulation containing AGAR 7053 as adjuvant
Source text: The performance of the sodium monobutyl sulfosuccinate as hydrotrope for pesticide formulation containing the AGAR 7053 as adjuvant was also confirmed by the results of a designed experiment.
The numbers associated with the small colored bar in the upper left hand corner of the Figure give the percentage of separation in the samples. The colors in the bar are related to the colored regions in the ternary diagram. As the regions in the graph go from red to blue the percentage of separation goes to zero.

appearance of formulation when freshly mixed [1]: clear
stability of formulation after prolonged standing [1]: retains that clarity and uniformity
Compound: CCCCOC(=O)C(CC(=O)[O-])S(=O)(=O)O.[Na+] (stereo not drawn) [sodium monobutyl sulfosuccinate]
performance as hydrotrope (separation of samples) [2]: performed as a hydrotrope over a wide range of concentrations
